Data on eleven compounds can be found in patent publication US20130217132A1, “METHODS, COMPOSITIONS AND USE FOR ENHANCING CHEMICAL TOLERANCE BY MICROORGANISMS” (priority 2009, published 2013).

One series has as its system bacterial cultures. The settings on record: amino acid 10 mM, acetic acid 2.5 g/L, MOPS minimal medium, FIG. 4.
For a further series, the system named is membrane integrity. Conditions: cited from earlier work.
Series [1] has as its system pBTL-1 Control (blank vector) culture. Kind of series: Aerobic growth (specific growth, final OD600) in MOPS minimal media with inhibitor, control. The settings on record: for Specific Growth: n=3. The series is classed as cell-based, E. coli. Here is the method:
(§1) Certain experiments described herein were performed in E. coli BW25113 recA-, with the kanamycin resistance gene removed.
(§2) Cultures were grown in 10 ml MOPS minimal media, 100 μg carbenicillin/ml, and either 1 g furfural/1 supplemented, 2 g HMF/1, or 4 g acetate/1, in 15 ml conical tubes at 37° C. The optical density of 1 ml culture was measured with a spectrophotometer at 600 nm. A natural log transformation of the data was then calculated and then a regression line was fit to the data to calculate specific growth, which is […] to the culture doubling time. The blank vector, pBTL-1, served as the control. The lpcA gene was cloned into the pBTL-1 using standard cloning techniques and primers designed to amplify the gene from template DNA.

The subject of a further series is pBTL-1 lpcA culture. The series is classed as cell-based, E. coli. The settings on record: for Specific Growth: n=3. Here is the method:
as §1, §2

A further series deals with cell growth. Conditions: concentrations as low as, cited from earlier work.
The subject of series [2] is BW25113 ArecA cells overexpressing lpcA gene (pLPCA). It is filed as cell-based, E. coli. Conditions: for OD600 at 24 hr: pLPCA cells. The procedure:
(§3) FIGS. 17A-17B represent methods of identification of a gene related to restoring tolerance. Multiple genome-wide SCALE selection was performed in the presence of ethanol, furfural and acetate respectively. The data set obtained for each compound was compared to the others. Alleles enriched in all cases were identified. […] To restore tolerance, overexpression of identified genes in bacterial cells was performed. For example, lpcA ORF was cloned into the pBTL-1 vector. BW25113 ArecA cells transformed with the blank pBTL-1 vector were used as a control. BW25113 ArecA cells overexpressing lpcA gene were referred to as pLPCA. Cells were inoculated at a standard cell density into MOPS minimal media, supplemented with furfural, acetate or ethanol. After 24 hours, growth of the cells was analyzed.
(§4) The indicated cells were grown in MOPS minimal media supplemented with glucose as a carbon source. Furfural was added to the media at the concentration of 1 g/L. Arabinose was added at 10 mM where indicated to gauge effect of AraC binding. The BW25113 araC::FRT-kan clone corresponds to JW0063, a BW25113 araC knockout mutant ordered from the Keio Collection directly. pBTL-1 represented the blank vector, and pLPCA referred to lpcA gene overexpression. […] To analyze the LPS level in the cells indicated in FIG. 19, LPS are extracted from the cells grown to exponential phase. Loading of LPS for the protein gel is normalized to the cell number. The gel is stained to visualize LPS protein bands after desired separation is obtained.
(§5) BW25113, MG1655, and derivatives were used where indicated. JW0063, an araC mutant of BW25113 was obtained from the Coli Genetic Stock Center (Yale). Overnight bacterial cultures were grown in Luria-Bertani medium with shaking. MOPS minimal medium (previously presented) with 0.2% glucose as a carbon source, was used for all seed cultures and growth studies. Seed cultures were inoculated at 2 v/v % from an overnight culture and were grown to mid-exponential phase. Growth cultures were inoculated with 10 v/v % seed cultures of an OD600 of 0.195-0.200 for an initial optical density of ˜0.02. Carbenicillin and kanamycin were used where appropriate at 100 μg/ml and 30 μg/ml, respectively. The pBTL-1 vector (previously described) was used as the control blank vector for all growth studies. Genome-wide furfural selection

Series [3] concerns BW25113 ArecA cells transformed with the blank pBTL-1 vector. The series is classed as cell-based, E. coli. Conditions: control cells. The procedure:
as §3, §4, §5

Another series relates to E. coli LY01. The settings on record: starting pH of 6.0, acid at the IC50 obtained at a neutral pH; cited from earlier work.
The conditions of series [4]: furfural vs. furfuryl alcohol; cited from earlier work.
The next series has as its system E. coli MC1022. The settings on record: cited from earlier work.
The test system of a further series is E. coli. Conditions: cited from earlier work.
Where [5] appears, read: aerobic growth in 4 g/L acetate.
Setting [6] is: aerobic growth in 2 g/L hydroxymethyl furfural.

Like-named read-outs stand apart in the source and are kept apart here.

Method for bacterial cultures: In another exemplary method, amino acid supplementation of cultures was observed and illustrated by histogram plot. Overnight cultures were prepared from freezer stocks. Stationary phase overnight cultures were used for a 2.5% inoculation of 5 mL MOPS minimal medium plus carbenicillin. The OD600 was monitored until the culture reached an OD600=0.2. […] Amino acid supplementation was done by preparing stock solutions of amino acids and supplementing the media to a final concentration of 10 mM. Cultures were incubated at 37° C. and were shaken at 225 rpm. OD600 was monitored over the course of exponential growth and final measurements were taken after 24 hours. Specific growth rate was calculated by linear regression on the natural logarithm of the exponential phase OD600 over time.

For the compound `CSCC[C@H](N)C(=O)O` [methionine], the “effect of amino acid supplementation on growth rate” value in the series with bacterial cultures is “greatest increase in growth rate”.
As for `O=C(O)c1ccco1` [2-furoic acid], the membrane leakage entry in the series with membrane integrity was “significant membrane leakage”.
As to `CC(=O)O` [acetate, acetic acid], the “Final OD600 (24 hr)” value in [1] (setting [5]) came out at 0.111; in the series on pBTL-1 lpcA culture (setting [5]), 0.324. In addition, the figures for the “Specific Growth” value (in series [1] (setting [5]); in the series with pBTL-1 lpcA culture (setting [5])) were 0.067 h⁻¹ and 0.126 h⁻¹, respectively. In addition, the “concentration that retards growth” value in the series on cell growth was 0.5 g/L. In the series on cell growth (minimal media), the “acetate concentration shown to inhibit cell growth by 50%” value was 0.5 g/L. For the same compound, the “improvement of final optical density by pLPCA in BW25113” value in [2] (acetate 5 g/l) came to 47±4%. The “OD600 at 24 hr” value in [2] (10 g/L of acetate) was 1.4; in series [3] (10 g/L of acetate), 0.75. Moreover, the “growth rate, percent that of control growth” value (from here on “growth rate, percent that”) in the series with E. coli LY01 is 0%.
For the compound `OCc1ccco1` [furfuryl alcohol], in the series with membrane integrity, the membrane leakage result is recorded as “significant membrane leakage”. Also, the “toxicity on a concentration basis” value in series [4] was around 20 g/L.
Regarding `COc1cc(C=O)ccc1O` [vanillin, 4-hydroxy-3-methoxybenzaldehyde], the “share of the population with membrane destabilization” value in the series on E. coli MC1022 (treatment for one hour at over three times the minimum inhibitory concentration) was 29%; with E. coli MC1022 (when grown overnight after treatment), 13%.
`O=Cc1ccc(CO)o1` [hydroxymethyl furfural, 5-(hydroxymethyl)-2-furaldehyde]: in series [1] (setting [6]), the “Final OD600 (24 hr)” value is 0.170 and the “Specific Growth” value amounted to 0.045 h⁻¹. Moreover, in the series on pBTL-1 lpcA culture (setting [6]), the “Final OD600 (24 hr)” value stood at 1.014 and the “Specific Growth” value was determined as 0.234 h⁻¹.
On to `N=C(N)NCCC[C@H](N)C(=O)O` [arginine], for which the “effect of amino acid supplementation on growth rate” value with bacterial cultures is “greatest increase in growth rate”.
As to `O=CO` [formic acid], the “growth rate, percent that” value in the series on E. coli LY01 is recorded as 35%.
Regarding `CCO` [ethanol], the “improvement of final optical density by pLPCA in BW25113” value in series [2] (ethanol 25 g/l) came to 37±3%. Also, the “OD600 at 24 hr” value stood at 1.0 in series [2] (25 g/L of ethanol) and 0.4 in series [3] (25 g/L of ethanol).
Turning to `CC(=O)C=O` [Methylgloxal], the “concentration inhibiting E. coli growth and protein synthesis” value in the series on E. coli is given as 0.07 g/L.
`CC(=O)CCC(=O)O` [levulinic acid]: the “growth rate, percent that” value with E. coli LY01 was 10%.
